Assay results as given in patent publication US20260241049A1, “Radiopharmaceutical Compositions Targeting Glypican-3 and Uses Thereof” (RayzeBio, Inc., priority 2023, published 2026).
Blank lines part the entries; values can stand above or below the molecule they belong to. Starred links: 1 amine or outer side, 2 acyl side, 3 side chain; linkers in the order of their positions; H or OH if unused. Positions of bridges follow the written chain, without caps; N, C: chain ends. Non-standard residues stand in square brackets, D forms with d. Residues, ends and D or L forms follow the SMILES beside them. Groups on a side chain read outwards from the residue. Primed or numbered codes have the meaning given here. *: point of attachment. MeHseMe″ = (2S)-4-methoxy-2-(methylamino)butanoic acid (N-methyl-O-methyl-L-homoserine), COCC[C@@H](C(=O)[*:2])N(C)[*:1]; Phe(4-(1-Me-pyrazol-4-yl)) = Cn1cc(-c2ccc(C[C@H](N)C(=O)O)cc2)cn1; NMeAla(isoquinolin-7-yl) = CN[C@@H](Cc1ccc2ccncc2c1)C(=O)O; DOTA = O=C(O)CN1CCN(CC(=O)O)CCN(CC(=O)*)CCN(CC(=O)O)CC1; 3Pal(6-Ph) = N[C@@H](Cc1ccc(-c2ccccc2)nc1)C(=O)O; Phe(4-COOH) = N[C@@H](Cc1ccc(C(=O)O)cc1)C(=O)O; Phe(4-CH2NH2) = NCc1ccc(C[C@H](N)C(=O)O)cc1; Piperazinyl(4-CH2COOH) = O=C(O)CN1CCN(*)CC1; NMe2Nal = CN[C@@H](Cc1ccc2ccccc2c1)C(=O)O; NMeI = CC[C@H](C)[C@H](NC)C(=O)O; NMeQ = CN[C@@H](CCC(N)=O)C(=O)O; NMehCys = CN[C@@H](CCS)C(=O)O; NMehSer = CN[C@@H](CCO)C(=O)O; NMeK = CN[C@@H](CCCCN)C(=O)O; NMeC = CN[C@@H](CS)C(=O)O; Carboxymethyl = O=C(O)C*; CO = O=C([*:1])[*:2]

Assays:
human Glypican3 = biological target: T1, human Glypican3 (Homo sapiens, UniProt P51654); assay: SPR binding to Glypican-3, Method B-1 (Glypican3 immobilized on CM3 chip, Biacore T200); details: SPR method B-1
T1 construct: purchased R&D systems 2119-GP
Protocol: A CM3 sensor chip (Cytiva) was inserted into a Biacore T200 (Cytiva), primed three times with a running buffer: HBS-P+, pH 7.4 (Cytiva), and equilibrated at a flow rate of 30 μL/min. Ligand immobilization was performed at a flow rate of 10 μL/min. 50 μL each of 60 mM EDC solution (Cytiva) and 650 mM NHS solution (Cytiva) were mixed, and then reacted at a flow rate of 10 μL/min for 420 seconds, 150 μL of 0.2 μM human Glypican3 (R&D systems, catalog number: 2119-GP) solution which was prepared by diluting with 10 mM acetic acid solution (pH 5.0), was reacted at a flow rate of 10 μL/min for 420 seconds, and Glypican3 was immobilized on the CM3 sensor chip. After immobilization, 1.0 M ethanolamine aqueous solution (Cytiva) was allowed to react for 420 seconds at a flow rate of 10 μL/min for capping. A peptide lysate prepared to 10 mM in DMSO solution was diluted with running buffer to a final concentration of 10 μM peptide lysate. After that, 5 serial dilution series (100 nM, 50 nM, 25 nM, 10 nM, 5 nM) of peptide solutions were prepared. Using the above samples, peptide kinetics for Glypican3 was obtained by SPR measurement. Kinetics evaluation of Glypican3 was performed by SPR measurements at a flow rate of 10 μL/min, setting the association time to 120 seconds and the disassociation time to 600 seconds.
(§1) The obtained data by Method B-1, Method B-2, Method B-3 and Method B-4 were analyzed by follow. Single Cycle Kinetics was used as the kinetics evaluation model, and curve fitting was performed using Biacore T200 Evaluation Software Version 3.0 (Cytiva). The obtained sensorgram was subjected to curve fitting by the method of least squares and obtained KD values of the macrocyclic peptides in this disclosure for Glypican 3 protein are shown in Table 18.

Human Glypican3-Fc = Human Glypican3-Fc (Homo sapiens, UniProt P51654); assay: SPR binding to Glypican-3, Method B-2 (Glypican3-Fc captured by anti-human IgG (Fc) antibody on CM3 chip); details: SPR method B-2
Protocol: A CM3 sensor chip (Cytiva) was inserted into a Biacore T200 (Cytiva), primed three times with a running buffer: HBS-P-+, pH 7.4 (Cytiva), and equilibrated at a flow rate of 30 μL/min. Using the Anti-Fc Capture Kit (Cytiva), 50 LL each of 60 mM EDC solution (Cytiva) and 650 mM NHS solution (Cytiva) were mixed, and then reacted at a flow rate of 10 μL/min for 420 seconds, 150 μL of […] Anti-human IgG (Fc) Antibody solution was prepared by diluting with 10 mM acetic acid solution (pH 5.0), reacted at a flow rate of 10 μL/min for 420 seconds, and immobilized on a CM3 sensor chip. After immobilization, 1.0 M ethanolamine aqueous solution (Cytiva) was allowed to react for 420 seconds at a flow rate of 10 μL/min for capping. Human Glypican3-Fc (ACRO Biosystems, GP3-H5258) was allowed to react for 60 seconds at a flow rate of 10 μL/min. After capturing human Glypican3-Fc, a peptide solution prepared to 10 mM in DMSO solution was diluted with a running buffer to a final concentration of 10 μM. After that, 5 serial dilution series (100 nM, 50 nM, 25 nM, 10 nM, 5 nM) of peptide solutions were prepared. Using the above samples, peptide kinetics for Glypican3 was obtained by SPR measurement. Kinetics evaluation of Glypican3 was performed by SPR measurements at a flow rate of 10 μL/min. setting the association time to 120 seconds and the disassociation time to 600 seconds.
as §1

[1] = biological target: Human Glypican3-Fc (ACRO Biosystems, GP3-H5258) (human) (UniProt P51654); assay: SPR (Biacore T200), Method B-3: Glypican3-Fc captured on Protein A chip, peptide as analyte
[2] = biological target: T2, Human Glypican3-Fc (ACRO Biosystems, GP3-H5258) (human, UniProt P51654 25-559); assay: SPR (Biacore T200), Method B-4: Glypican3-Fc captured on Protein A chip, peptide at 40 nM
T2 construct: Bought fusion protein, captured in Methods B-2, B-3 and B-4; Catalogue number is printed only in Method B-2; not shown: Fc part of the bought fusion
Protocol: Using the above samples, peptide kinetics for Glypican3 was obtained by SPR measurement.
The obtained data by Method B-1, Method B-2, Method B-3 and Method B-4 were analyzed by follow. Single Cycle Kinetics was used as the kinetics evaluation model, and curve fitting was performed using Biacore T200 Evaluation Software Version 3.0 (Cytiva).

Kd (human Glypican3): 2.5 nM
Molecule: CC[C@H](C)[C@@H]1NC(=O)[C@H](Cc2ccc(C(=O)O)cc2)NC(=O)[C@H](CCC(N)=O)N(C)C(=O)[C@H](CCCCNC(C)=O)NC(=O)[C@H](CCC(N)=O)N(C)C(=O)[C@H](CCC(N)=O)N(C)C(=O)CSC[C@@H](C(N)=O)N(C)C(=O)[C@H](Cc2ccc(-c3cnn(C)c3)cc2)NC(=O)CNC(=O)[C@H](Cc2ccc3ccccc3c2)N(C)C(=O)[C@H](Cc2ccc(C(=O)O)cc2)NC(=O)[C@H]([C@@H](C)CC)NC1=O [Conjugate 2-11] ({CH2CO}-[NMeQ][NMeQ]K(Ac)[NMeQ][Phe(4-COOH)]II[Phe(4-COOH)][NMe2Nal]G[Phe(4-(1-Me-pyrazol-4-yl))][NMeC]-NH2; thioether N-12)

Kd (human Glypican3): 0.5 nM
Molecule: CC[C@H](C)[C@@H]1NC(=O)[C@H](Cc2ccc(C(=O)O)cc2)NC(=O)[C@H](CCC(N)=O)N(C)C(=O)[C@H](CC(=O)O)NC(=O)[C@H]([C@@H](C)CC)N(C)C(=O)[C@H](CCCCNC(C)=O)N(C)C(=O)CSC[C@@H](C(N)=O)N(C)C(=O)[C@H](Cc2ccc(-c3ccccc3)nc2)NC(=O)CNC(=O)[C@H](Cc2ccc3ccccc3c2)N(C)C(=O)[C@H](Cc2ccc(C(=O)O)cc2)NC(=O)[C@H]([C@@H](C)CC)NC1=O [Conjugate 2-1] ({CH2CO}-[NMeK](Ac)[NMeI]D[NMeQ][Phe(4-COOH)]II[Phe(4-COOH)][NMe2Nal]G[3Pal(6-Ph)][NMeC]-NH2; thioether N-12)

Kd (human Glypican3): 1.2 nM
Molecule: CC[C@H](C)[C@@H]1NC(=O)[C@H](Cc2ccc(C(=O)O)cc2)NC(=O)[C@H](CCC(N)=O)N(C)C(=O)[C@H](CCC(N)=O)NC(=O)[C@H]([C@@H](C)CC)N(C)C(=O)[C@H](CCCCNC(C)=O)N(C)C(=O)CSC[C@@H](C(N)=O)N(C)C(=O)[C@H](Cc2ccc(-c3cnn(C)c3)cc2)NC(=O)CNC(=O)[C@H](Cc2ccc3ccccc3c2)N(C)C(=O)[C@H](Cc2ccc(C(=O)O)cc2)NC(=O)[C@H]([C@@H](C)CC)NC1=O [Conjugate 2-3] ({CH2CO}-[NMeK](Ac)[NMeI]Q[NMeQ][Phe(4-COOH)]II[Phe(4-COOH)][NMe2Nal]G[Phe(4-(1-Me-pyrazol-4-yl))][NMeC]-NH2; thioether N-12)

Kd (human Glypican3): 1.5 nM
Molecule: CC[C@H](C)[C@@H]1NC(=O)[C@H](Cc2ccc(C(=O)O)cc2)NC(=O)[C@H](CCC(N)=O)N(C)C(=O)[C@H](CC(=O)O)NC(=O)[C@H]([C@@H](C)CC)N(C)C(=O)[C@H](CCCCNC(C)=O)N(C)C(=O)CSC[C@@H](C(N)=O)N(C)C(=O)[C@H](Cc2ccc(-c3cnn(C)c3)cc2)NC(=O)CNC(=O)[C@H](Cc2ccc3ccccc3c2)N(C)C(=O)[C@H](Cc2ccc(C(=O)O)cc2)NC(=O)[C@H]([C@@H](C)CC)NC1=O [Conjugate 2-2] ({CH2CO}-[NMeK](Ac)[NMeI]D[NMeQ][Phe(4-COOH)]II[Phe(4-COOH)][NMe2Nal]G[Phe(4-(1-Me-pyrazol-4-yl))][NMeC]-NH2; thioether N-12)

Kd (Human Glypican3-Fc): 0.7 nM
Molecule: CC[C@H](C)[C@@H]1NC(=O)[C@H]([C@@H](C)OC)NC(=O)[C@H](Cc2ccc(C(=O)O)cc2)NC(=O)[C@H](CCC(N)=O)N(C)C(=O)[C@H](CC(=O)O)NC(=O)[C@H](CCOC)N(C)C(=O)[C@H](CCC(N)=O)N(C)C(=O)CSC[C@@H](C(N)=O)N(C)C(=O)[C@H](Cc2ccc(-c3ccccc3)nc2)NC(=O)CNC(=O)[C@H](Cc2ccc3ccccc3c2)N(C)C(=O)[C@H](Cc2ccc(CNC(=O)N3CCN(CC(=O)O)CC3)cc2)NC1=O [Conjugate 2-20] ({CH2CO}-[NMeQ][NMehSer](Me)D[NMeQ][Phe(4-COOH)]T(Me)I[Phe(4-CH2NH2)]([CO-Piperazinyl(4-CH2COOH)])[NMe2Nal]G[3Pal(6-Ph)][NMeC]-NH2; thioether N-12)

Kd (human Glypican3): 1.8 nM
Molecule: CC[C@H](C)[C@@H]1NC(=O)[C@H]([C@@H](C)OC)NC(=O)[C@H](Cc2ccc(C(=O)O)cc2)NC(=O)[C@H](CCC(N)=O)N(C)C(=O)[C@H](CC(=O)O)NC(=O)[C@H](CCC(N)=O)N(C)C(=O)[C@H](CCC(N)=O)N(C)C(=O)SCC[C@@H](C(N)=O)N(C)C(=O)[C@H](Cc2ccc(-c3cnn(C)c3)cc2)NC(=O)CNC(=O)[C@H](Cc2ccc3ccccc3c2)N(C)C(=O)[C@H](Cc2ccc(C(=O)O)cc2)NC1=O [Conjugate 2-15] ([NMeQ][NMeQ]D[NMeQ][Phe(4-COOH)]T(Me)I[Phe(4-COOH)][NMe2Nal]G[Phe(4-(1-Me-pyrazol-4-yl))][NMehCys]-NH2; linker N-12 via CO)

Kd (Human Glypican3-Fc): 0.8 nM
Molecule: CC[C@H](C)[C@@H]1NC(=O)[C@H](Cc2ccc(C(=O)O)cc2)NC(=O)[C@H](CCC(N)=O)N(C)C(=O)[C@H](CC(=O)O)NC(=O)[C@H]([C@@H](C)CC)N(C)C(=O)[C@H](CCCCNC(=O)[C@H](Cc2c[nH]cn2)NC(=O)CN2CCN(CC(=O)O)CCN(CC(=O)O)CCN(CC(=O)O)CC2)N(C)C(=O)CSC[C@@H](C(N)=O)N(C)C(=O)[C@H](Cc2ccc(-c3ccccc3)nc2)NC(=O)CNC(=O)[C@H](Cc2ccc3ccncc3c2)N(C)C(=O)[C@H](Cc2ccc(OCC(=O)O)cc2)NC(=O)[C@H]([C@@H](C)CC)NC1=O [Lu-C-34] ({CH2CO}-[NMeK]([His-DOTA])[NMeI]D[NMeQ][Phe(4-COOH)]IIY(Carboxymethyl)[NMeAla(isoquinolin-7-yl)]G[3Pal(6-Ph)][NMeC]-NH2; thioether N-12)

Kd [1]: 1 nM
B1: Macrocyclic peptide of Example 2-37 (SEQ ID No. 54) (peptide)
peptide: XSDXFTIXFGXC
modifications: not fully specified; MeDapCOpipzaa-MeHseMe-D-MeDapCOpipzaa-F4COO-TMe-I-Yae-MeNal27N-G-3Py6Ph-MeC-NH2; thioether ring from N-terminal acetyl to MeC12

Kd [2]: 0.23 nM
B2: Macrocyclic peptide of Example 2-61 (SEQ ID No. 72) (peptide)
peptide: {CH2CO}-[NMeK][MeHseMe″]D[NMeQ][Phe(4-COOH)]IIY[NMeAla(isoquinolin-7-yl)]G[3Pal(6-Ph)][NMeC]-NH2
modifications: thioether N-12
SMILES: CC[C@H](C)[C@@H]1NC(=O)[C@H](Cc2ccc(C(=O)O)cc2)NC(=O)[C@H](CCC(N)=O)N(C)C(=O)[C@H](CC(=O)O)NC(=O)[C@H](CCOC)N(C)C(=O)[C@H](CCCCN)N(C)C(=O)CSC[C@@H](C(N)=O)N(C)C(=O)[C@H](Cc2ccc(-c3ccccc3)nc2)NC(=O)CNC(=O)[C@H](Cc2ccc3ccncc3c2)N(C)C(=O)[C@H](Cc2ccc(O)cc2)NC(=O)[C@H]([C@@H](C)CC)NC1=O

Kd [1]: 0.3 nM
B3: Macrocyclic peptide of Example 2-33 (SEQ ID No. 50) (peptide)
peptide: XSDXFTIXFGXC
modifications: not fully specified; MeDapCOpipzaa-MeHseMe-D-MeDapCOpipzaa-F4COO-TMe-I-Yae-MeNal2-G-3Py6Ph-MeC-NH2; thioether ring from N-terminal acetyl to MeC12
